How the values were obtained:
Format in all cases: cell-based, human
TOX = assay: qRT-PCR of TOX gene expression in cultured PBMCs after drug treatment; conditions: isolated PBMCs, 48 hours of incubation with treatment; 4 μM romidepsin or 20 uM pralatrexate; romidepsin p<0.05; FIG. 5A
Procedure: (§1) Isolated PBMCs were cultured overnight and the next day divided into two treatment groups: 4 μM romidepsin and 20 uM pralatrexate. Each treatment was added 24 hours following culture initiation and was replaced along with fresh media 24 hours after initial treatment. After 48 hours of incubation with treatment, RNA was isolated from treated cells using RNAprotect and RNeasy (Qiagen, Valencia, Calif.) per manufacturer's instructions. For cDNA synthesis, total RNA (100 ng) was used for Reverse Transcription (RT) with Superscript II reverse transcriptase (Life Technologies, Gaithersburg, Md.) using oligo dT primers according to the recommendations of the manufacturer. 2 ul of the resulting cDNA was used for each PCR reaction. Quantitative reverse transcription PCR was performed using TaqMan PCR master mix (Applied Biosystems, Foster City, Calif.) together with TaqMan probes and primers (Applied Biosystems) using standard conditions. Expression of TOX, PLS3 and […] genes were measured in this way.

PLS3 = assay: qRT-PCR of PLS3 gene expression in cultured PBMCs after drug treatment; conditions: isolated PBMCs, 48 hours of incubation with treatment; 4 μM romidepsin or 20 uM pralatrexate; romidepsin p<0.05; FIG. 5B
Procedure: as §1

RUNX3 = assay: qRT-PCR of RUNX3 gene expression in cultured PBMCs after drug treatment; conditions: isolated PBMCs, 48 hours of incubation with treatment; 4 μM romidepsin or 20 uM pralatrexate; romidepsin p<0.05; FIG. 5C
Procedure: as §1

SMILES: C#CCC(Cc1cnc2nc(N)nc(N)c2n1)c1ccc(C(=O)N[C@@H](CCC(=O)O)C(=O)O)cc1 (stereo partly drawn) [pralatrexate]
- gene expression of TOX (TOX): did not result in altered gene expression
- gene expression of PLS3 (PLS3): did not result in altered gene expression
- expression of RUNX3 (RUNX3): did not result in altered gene expression

— patent US11598778B2, “Method for diagnosis, prognosis and determination of treatment for cutaneous t-cell lymphoma” (UNIVERSITY OF PITTSBURGH—OF THE COMMONWEALTH SYSTEM OF …, priority 2013, dated 2023)
